Measured values: US10723727B2, “Tubulysin analogs and methods for their preparation” (priority 2016, dated 2020)
Like-named read-outs stand apart in the source and are kept apart here.

Legend:
[1] = test system: MDA-MB-361-DYT2 (breast cancer) cells; assay: In vitro cell assay (MTS cell viability), MDA-MB-361-DYT2; assay type: cell-based; details: 96 h, free compounds; 96 hours after treatment
Procedure: (§1) In Vitro Cell Assay Procedure
(§2) Target expressing (BT474 (breast cancer), N87 (gastric cancer), HCC1954 (breast cancer), MDA-MB-361-DYT2 (breast cancer)) or non-expressing (HT-29) cells were seeded in 96-well cell culture plates for 24 hours before treatment. Cells were treated with 3-fold serially diluted antibody-drug conjugates or free compounds (i. e. no antibody conjugated to the drug) in duplicate at 10 concentrations. Cell viability was determined by CellTiter 96® AQueous One Solution Cell Proliferation MTS Assay (Promega, Madison Wis.) 96 hours after treatment. Relative cell viability was determined as percentage of untreated control. IC50 values were calculated using a four parameter logistic model #203 with XLfit v4. 2 (IDBS, Guildford, Surry, UK).

[2] = target: T1, tubulin/RB3-stathmin-like-domain (RB3-SLD-tdm) complex (Sus scrofa, UniProt P02550+P02554); assay: Tubulin Peptide-Binding Site Competition Assay (fluorescence polarization); set-up: species or system Porcine
T1 construct: purchased Cytoskeleton, Inc. T240; host or cells: RB3-SLD was made in house in E. coli
Procedure: Tubulin Peptide-Binding Site Competition Assay
Tubulin binding potency was measured for payloads or cysteine-capped linker-payloads using a fluorescence polarization (FP) competition assay. The binding of a BODIPY-labeled vinca peptide probe (# B31) to a tubulin/RB3-stathmin-like-domain (RB3-SLD-tdm) complex generates a high FP signal, which can be decreased when mixing with test compounds that compete with the FP probe. The order of addition for the reagents in the FP assay was designed to pre-mix the FP probe with various concentrations of the test compound before mixing them with the tubulin/RB3-SLD-dm complex. The final assay concentrations of the probe, tubulin and RB3-SLD-dm were 3, 6, and 100 nM, respectively. IC50 for each test compound is obtained by fitting the dose-dependent FP signal change using GraphPad Prism version 5 software (La Jolla, Calif.) while Ki is converted from the IC50 using the equations described previously (Nikolovska-Coleska et al., 2004). The FP signals were measured on an Infinite M1000 (Tecan, San Jose, Calif.) using ProxiPlate-384 F Plus, Black (Perkin-Elmer, Waltham, Mass., Cat #6008260) with 15 μL of solution per well. Sample dilution and mixing were done using a Beckman Biomek XF (Brea, Calif.). Porcine tubulin was purchased from Cytoskeleton, Inc. (Denver, Colo., Cat #T240) and RB3-SLD was expressed in E. coli. and purified on Q and then Superdex75 columns. The FP assay test for each compound was run in duplicates by mixing 6 μL of solution 1 containing 2.5× test compound (2.5× serial dilution from 7.8 μM maximum concentration, 11 total concentrations) and 7.5 nM of the FP probe in 80 mM PIPES, pH 7.0, 0.02% Tween 20, 2 mM MgCl2, 1 mM EGTA and 3% DMSO with 9 μL of solution 2 containing […] porcine tubulin and 167 nM of RB3-SLD-dm peptide ([…]-[…]) on ProxiPlate-384 micro-plates.

[3] = test system: N87 (gastric cancer) cells; assay: In vitro cell assay (MTS cell viability), N87; assay type: cell-based; details: 96 h, free compounds; 96 hours after treatment
Procedure: as §1, §2

[4] = FP competition with BODIPY-labeled vinca peptide probe, read after five hours at 22° C., read-out: Tubulin Peptide-Binding Site Competition Assay IC50

Row | Compound | IC50 [1] [nM] | IC50 [2, 4] [nM] | IC50 [3] [nM] | IC50 [2] [nM]
1 | CC[C@H](C)[C@H](NC(=O)[C@@]1(C)CCCN1)C(=O)N(C)[C@H](C[C@@H](OC(C)=O)c1nc(C(=O)N[C@@H](Cc2ccccc2)C[C@H](C)C(=O)OC)cs1)C(C)C [#B6, 2-methyl-D-prolyl-N-[(1R,3R)-1-(acetyloxy)-1-(4-{[(2R,4S)-5-methoxy-4-methyl-5-oxo-1-phenylpentan-2-yl]carbamoyl}-1,3-thiazol-2-yl)-4-methylpentan-3-yl]-N-methyl-L-isoleucinamide] | 18.6 | 119 | 29.3 | 
2 | CC[C@H](C)[C@H](NC(=O)[C@]1(C)CCCN1C)C(=O)N(C)[C@H](C[C@@H](OC(C)=O)c1nc(C(=O)N[C@@H](Cc2ccccc2)C[C@H](C)C(=O)OC)cs1)C(C)C [#B2, 1,2-dimethyl-L-prolyl-N-[(1R,3R)-1-(acetyloxy)-1-(4-{[(2R,4S)-5-methoxy-4-methyl-5-oxo-1-phenylpentan-2-yl]carbamoyl}-1,3-thiazol-2-yl)-4-methylpentan-3-yl]-N-methyl-L-isoleucinamide] | 5.54 | 92.2 | 11.8 | 
3 | CC[C@H](C)[C@H](NC(=O)[C@H]1CCCCN1C)C(=O)N(C)[C@H](C[C@@H](OC(C)=O)c1nc(C(=O)NCCn2ccccc2=O)cs1)C(C)C [#B41, (1R,3R)-4-methyl-3-[methyl(N-{[(2R)-1-methylpiperidin-2-yl]carbonyl}-L-isoleucyl)amino]-1-[4-{[2-(2-oxopyridin-1(2H)-yl)ethyl]carbamoyl}-1,3-thiazol-2-yl)pentyl acetate] | 1.44 | 4.41 | 2 | 
4 | CC[C@H](C)[C@H](NC(=O)[C@H]1CCCCN1C)C(=O)N(C)[C@H](C[C@@H](OC(C)=O)c1nc(C(=O)NC(Cc2ccccc2)c2nc(C(=O)O)cs2)cs1)C(C)C (stereo partly drawn) [#B37, 2-(1-{[(2-{(1R,3R)-1-(acetyloxy)-4-methyl-3-[methyl(N-{[(2R)-1-methylpiperidin-2-yl]carbonyl}-L-isoleucyl)amino]pentyl}-1,3-thiazol-4-yl)carbonyl]amino}-2-phenylethyl)-1,3-thiazole-4-carboxylic acid] | 240 | 1.3 | 228 | 
5 | CC[C@H](C)[C@H](NC(=O)[C@H]1CCCCN1C)C(=O)N(C)[C@H](C[C@@H](OC(C)=O)c1nc(C(=O)N[C@@H](Cc2ccccc2)CN2CCOCC2)cs1)C(C)C [#B40, (1R,3R)-4-methyl-3-[methyl(N-{[(2R)-1-methylpiperidin-2-yl]carbonyl}-L-isoleucyl)amino]-1-[4-({(2S)-1-(morpholin-4-yl)-3-phenylpropan-2-yl]carbamoyl}-1,3-thiazol-2-yl)pentyl acetate] | 0.308 | 2.4 | 0.485 | 
6 | CCOC(=O)[C@@H](C)C[C@H](Cc1ccccc1)NC(=O)c1csc([C@@H](C[C@H](C(C)C)N(C)C(=O)[C@@H](NC(=O)[C@@]2(C)CCCN2C)[C@@H](C)CC)OC(C)=O)n1 [#B7, 1,2-dimethyl-D-prolyl-N-[(1R,3R)-1-(acetyloxy)-1-(4-{[(2R,4S)-5-ethoxy-4-methyl-5-oxo-1-phenylpentan-2-yl]carbamoyl}-1,3-thiazol-2-yl)-4-methylpentan-3-yl]-N-methyl-L-isoleucinamide] | 5.15 | 11.9 | 9.53 | 
7 | CCOC(=O)c1ncoc1[C@H](Cc1ccccc1)NC(=O)c1csc([C@@H](C[C@H](C(C)C)N(C)C(=O)[C@@H](NC(=O)[C@H]2CCCCN2C)[C@@H](C)CC)OC(C)=O)n1 [#B39, ethyl 5-[(1S)-1-{[(2-{(1R,3R)-1-(acetyloxy)-4-methyl-3-[methyl(N-{[(2R)-1-methylpiperidin-2-yl]carbonyl}-L-isoleucyl)amino]pentyl}-1,3-thiazol-4-yl)carbonyl]amino}-2-phenylethyl]-1,3-oxazole-4-carboxylate] | 0.602 | 4.7 | 1.39 | 
8 | CC[C@H](C)[C@H](NC(=O)[C@H]1CCCCN1C)C(=O)N(C)[C@H](C[C@@H](OC(C)=O)c1nc(C(=O)N[C@@H](Cc2ccccc2)CC(C)P(=O)(O)O)cs1)C(C)C (stereo partly drawn) [#B3, N-[(1R,3R)-1-(acetyloxy)-4-methyl-1-(4-{[(2S)-1-phenyl-4-phosphonopentan-2-yl]carbamoyl}-1,3-thiazol-2-yl)pentan-3-yl]-N-methyl-N˜2˜-{[(2R)-1-methylpiperidin-2-yl]carbonyl}-L-isoleucinamide] | 9.4 |  | 14.8 | 4.4
9 | CC[C@H](C)[C@H](NC(=O)[C@H]1CCCCN1C)C(=O)N(C)[C@H](C[C@@H](OC(C)=O)c1nc(C(=O)NN(Cc2ccccc2)CC(C)C(=O)O)cs1)C(C)C (stereo partly drawn) [#B4, 3-{2-[(2-{(1R,3R)-1-(acetyloxy)-4-methyl-3-[methyl(N-{[(2R)-1-methylpiperidin-2-yl]carbonyl}-L-isoleucyl)amino]pentyl}-1,3-thiazol-4-yl)carbonyl]-1-benzylhydrazinyl}-2-methylpropanoic Acid] | 2.39 | 4.6 | 3.38 | 
10 | CC[C@H](C)[C@H](NC(=O)[C@H]1CCCCN1C)C(=O)N(C)[C@H](C[C@@H](OC(C)=O)c1nc(C(=O)N[C@H](CNS(C)(=O)=O)Cc2ccccc2)cs1)C(C)C [#B36, (1R,3R)-4-methyl-3-[methyl(N-{[(2R)-1-methylpiperidin-2-yl]carbonyl}-L-isoleucyl)amino]-1-[4-({(2S)-1-[(methylsulfonyl)amino]-3-phenylpropan-2-yl}carbamoyl)-1,3-thiazol-2-yl]pentyl acetate] | 0.255 | 1.7 | 0.459 | 
11 | CC[C@H](C)[C@H](NC(=O)C1(N(C)C)CCCC1)C(=O)N(C)[C@H](C[C@@H](OC(C)=O)c1nc(C(=O)N[C@@H](Cc2ccccc2)C[C@H](C)C(=O)OC)cs1)C(C)C [#B1, methyl (2S,4R)-4-{[(2-{(1R,3R)-1-(acetyloxy)-3-[(N-{[1-(dimethylamino)cyclopentyl]carbonyl}-L-isoleucyl)(methyl)amino]-4-methylpentyl}-1,3-thiazol-4-yl)carbonyl]amino}-2-methyl-5-phenylpentanoate] | 19 | 250 | 18.9 | 
12 | CC[C@H](C)[C@H](NC(=O)[C@@]1(C)CCCN1C)C(=O)N(C)[C@H](C[C@@H](OC(C)=O)c1nc(C(=O)N[C@@H](Cc2ccccc2)C[C@H](C)C(=O)O)cs1)C(C)C [#B8, 1,2-dimethyl-D-prolyl-N-[(1R,3R)-1-(acetyloxy)-1-(4-{[(2R,4S)-4-carboxy-1-phenylpentan-2-yl]carbamoyl}-1,3-thiazol-2-yl)-4-methylpentan-3-yl]-N-methyl-L-isoleucinamide] | 0.063 | 1.8 | 0.104 | 
13 | CC[C@H](C)[C@H](NC(=O)[C@H]1CCCCN1C)C(=O)N(C)[C@H](C[C@@H](OC(C)=O)c1nc(C(=O)NCC2OCCc3ccccc32)cs1)C(C)C (stereo partly drawn) [#B38, (1R,3R)-1-{4-[(3,4-dihydro-1H-isochromen-1-ylmethyl)carbamoyl]-1,3-thiazol-2-yl}-4-methyl-3-[methyl(N-{[(2R)-1-methylpiperidin-2-yl]carbonyl}-L-isoleucyl)amino]pentyl acetate] | 0.925 | 4.8 | 3.06 | 
14 | CC[C@H](C)[C@H](NC(=O)[C@@]1(C)CCCN1C)C(=O)N(C)[C@H](C[C@@H](OC(C)=O)c1nc(C(=O)NC2CCc3ccccc3C2)cs1)C(C)C (stereo partly drawn) [#B57, 1,2-dimethyl-D-prolyl-N-{(1R,3R)-1-(acetyloxy)-4-methyl-1-[4-(1,2,3,4-tetrhydronaphthalen-2-ylcarbamoyl)-1,3-thiazol-2-yl)pentan-3-yl}-N-methyl-L-isoleucinamide] |  | 78.8 |  | 
